Where two headings read alike, the source gives them in different places. Marks after values point to notes of the source that are not given here.
Key:
CYP3A = test system: CYP3A; parameters: method as in PMID 29473431, PMID 38520556, PMID 33492746; details: in vitro; cited from earlier work
[1] = Phase I DDI study Part 1: tazemetostat plasma PK alone and with itraconazole (noncompartmental analysis); format: in vivo, human; details: for RacAUC (AUC0‐12h accumulation ratio), geoLSM (90% CI) / RacCmax (Cmax accumulation ratio), geoLSM (90% CI): tazemetostat 400 mg alone, Day 15 versus Day 1; for AUC / AUC(0-t) / Cmax / half-life / Tmax: human; for Tmax: read-out: tmax, median (range)
Description: This was a Phase I, multicenter, open‐label, 2‐part study encompassing a fixed‐sequence design that aimed to characterize the PK of tazemetostat when administered as single and twice‐daily oral doses alone or in combination with either itraconazole (Part 1) or rifampin (Part 2). Secondary objectives were to evaluate the safety profile of tazemetostat when coadministered with either itraconazole (Part 1) or rifampin (Part 2).
Part 1 of the study evaluated the DDI between tazemetostat and itraconazole. On the mornings of Days 1 and 15, patients received a single dose of tazemetostat 400 mg orally. On Days 3‐14, patients received tazemetostat 400 mg twice daily (morning and evening). On Days 18‐20, patients received itraconazole 200 mg orally once daily in the morning. On Days 21‐35, tazemetostat 400 mg twice daily was coadministered in the morning with a single dose of itraconazole 200 mg. On Day 36, patients received a single dose of tazemetostat 400 mg coadministered in the morning with a single dose of itraconazole 200 mg. On Days 37 and 38, patients received a single dose of itraconazole 200 mg (Figure 1A). Throughout Part 1, administration of itraconazole occurred 1 hour after a meal.
In Part 1, plasma concentrations of tazemetostat following tazemetostat dosing on Days 1, 15, 21, and 36 were quantified for PK analyses before dosing (0 hour), and at 0.5, 1, 1.5, 2, 4, 6, 8, 12, 24 (Days 21‐22), 36, 48 (Days 1‐3), and up to 72 hours after dosing (Days 15‐18 and Days 36‐39).
Plasma concentrations of tazemetostat, over the ranges of 1.00‐2000 ng/mL, were quantified by a fully validated liquid chromatography with tandem mass spectrometric detection analytical method. Samples that had no detectable peak or had the calculated concentration <1.00 ng/mL were reported as below the lower limit of quantification. Tazemetostat analysis consisted of protein precipitation extraction and separation using mobile phases of 100 mM ammonium formate/water (1:9 v/v) (mobile phase A) and 100 mM ammonium formate/acetonitrile (1:9 v/v) (mobile phase B). Detection was achieved using an API‐5500 mass spectrometer (AB Sciex) using electrospray ionization (positive‐ion mode) in the multiple reaction monitoring mode. The multiple reaction monitoring mode m/z transitions monitored were […] for tazemetostat and the dwell time was set at 300 milliseconds.
Plasma concentration‐time data for tazemetostat were analyzed by noncompartmental analysis using the validated software program Phoenix WinNonlin Professional Version 8.3 (Certara Inc., Mountain View, CA).

[2] = Part 1, single dose with itraconazole vs alone, Day 21 versus Day 1
[3] = Part 1, single dose with itraconazole vs alone, Day 21 versus Day 1, listed as tazemetostat
[4] = Part 1, steady state with itraconazole vs alone, Day 36 versus Day 15
[5] = Part 1, steady state with itraconazole vs alone, Day 36 versus Day 15, listed as tazemetostat
[6] = single doses, Day 21/Day 1, compared with tazemetostat alone
[7] = twice‐daily dosing, steady state, Day 36/Day 15

SMILES: CCN(c1cc(-c2ccc(CN3CCOCC3)cc2)cc(C(=O)NCc2c(C)cc(C)[nH]c2=O)c1C)C1CCOCC1 [Tazemetostat]
- metabolism by CYP3A (CYP3A): mainly metabolized by cytochrome P450 (CYP), family 3, subfamily A (CYP3A)
- AUC0‐12h ratio, geoLSM (90% CI) [1, 2]: 3.12 (2.44‐3.99) ^b
- Cmax ratio, geoLSM (90% CI) [1, 2]: 2.00 (1.60‐2.48) ^b
- AUC0‐12h ratio, geoLSM (90% CI) [1, 3]: 3.12
- Cmax ratio, geoLSM (90% CI) [1, 3]: 2.00
- AUC0‐12h ratio, geoLSM (90% CI) [1, 4]: 2.47 (2.02‐3.02) ^c
- Cmax ratio, geoLSM (90% CI) [1, 4]: 1.86 (1.49‐2.31) ^c
- AUC0‐12h ratio, geoLSM (90% CI) [1, 5]: 2.47
- Cmax ratio, geoLSM (90% CI) [1, 5]: 1.86
- RacAUC (AUC0‐12h accumulation ratio), geoLSM (90% CI) ([1]; Part 1): 0.842 (0.726‐0.976) ^e
- RacCmax (Cmax accumulation ratio), geoLSM (90% CI) ([1]; Part 1): 0.771 (0.662‐0.897) ^e
- RacAUC (AUC0‐12h accumulation ratio), geoLSM (90% CI) ([1]; Part 1, listed as tazemetostat): 0.842
- RacCmax (Cmax accumulation ratio), geoLSM (90% CI) ([1]; Part 1, listed as tazemetostat): 0.771
- AUC0‐12 h, GeoMean (CV%) ([1]; Part 1, tazemetostat 400 mg multiple dosing with itraconazole 200 mg once daily, Day 36, plasma): 4530 (64.5) ng•h/mL
- t1/2, GeoMean (CV%) ([1]; Part 1, tazemetostat 400 mg single dose with itraconazole 200 mg once daily, Day 21, plasma, estimated over a 12‐hour dosing interval): 2.86 (28.9) ^a hour
- AUC ([1]; plasma, oral, 400 mg, Part 1, tazemetostat 400 mg twice daily alone, multiple dosing, Day 15, plasma, read-out: AUC0‐12 h, GeoMean (CV%)): 1830 ng·h/mL
- AUC ([1]; plasma, oral, 400 mg, Part 1, tazemetostat 400 mg twice daily alone, multiple dosing, Day 15, plasma, read-out: AUC0‐12 h, mean (SD)): 1960 ng·h/mL
- AUC(0-t) ([1]; plasma, oral, 400 mg, Part 1, tazemetostat 400 mg twice daily alone, multiple dosing, Day 15, plasma, read-out: AUClast, GeoMean (CV%)): 2200 ng·h/mL
- AUC(0-t) ([1]; plasma, oral, 400 mg, Part 1, tazemetostat 400 mg twice daily alone, multiple dosing, Day 15, plasma, read-out: AUClast, mean (SD)): 2340 ng·h/mL
- Cmax ([1]; plasma, oral, 400 mg, Part 1, tazemetostat 400 mg twice daily alone, multiple dosing, Day 15, plasma, read-out: Cmax, GeoMean (CV%)): 543 ng/mL
- Cmax ([1]; plasma, oral, 400 mg, Part 1, tazemetostat 400 mg twice daily alone, multiple dosing, Day 15, plasma, read-out: Cmax, mean (SD)): 643 ng/mL
- half-life ([1]; plasma, oral, 400 mg, Part 1, tazemetostat 400 mg twice daily alone, multiple dosing, Day 15, plasma, read-out: t1/2, GeoMean (CV%) (converted)): 8.01 h
- half-life ([1]; plasma, oral, 400 mg, Part 1, tazemetostat 400 mg twice daily alone, multiple dosing, Day 15, plasma, read-out: t1/2, mean (SD) (converted)): 8.62 h
- Tmax ([1]; plasma, oral, 400 mg, Part 1, tazemetostat 400 mg twice daily alone, multiple dosing, Day 15, plasma): 1.27 h
- AUC ([1]; plasma, oral, Part 1, tazemetostat 400 mg multiple dosing with itraconazole 200 mg once daily, Day 36, plasma, read-out: AUC0‐12 h, mean (SD)): 5160 ng·h/mL
- AUC(0-t) ([1]; plasma, oral, Part 1, tazemetostat 400 mg multiple dosing with itraconazole 200 mg once daily, Day 36, plasma, read-out: AUClast, GeoMean (CV%)): 5750 ng·h/mL
- AUC(0-t) ([1]; plasma, oral, Part 1, tazemetostat 400 mg multiple dosing with itraconazole 200 mg once daily, Day 36, plasma, read-out: AUClast, mean (SD)): 6490 ng·h/mL
- Cmax ([1]; plasma, oral, Part 1, tazemetostat 400 mg multiple dosing with itraconazole 200 mg once daily, Day 36, plasma, read-out: Cmax, GeoMean (CV%)): 1010 ng/mL
- Cmax ([1]; plasma, oral, Part 1, tazemetostat 400 mg multiple dosing with itraconazole 200 mg once daily, Day 36, plasma, read-out: Cmax, mean (SD)): 1190 ng/mL
- half-life ([1]; plasma, oral, Part 1, tazemetostat 400 mg multiple dosing with itraconazole 200 mg once daily, Day 36, plasma, read-out: t1/2, GeoMean (CV%) (converted)): 11.9 h
- half-life ([1]; plasma, oral, Part 1, tazemetostat 400 mg multiple dosing with itraconazole 200 mg once daily, Day 36, plasma, read-out: t1/2, mean (SD) (converted)): 12.9 h
- Tmax ([1]; plasma, oral, Part 1, tazemetostat 400 mg multiple dosing with itraconazole 200 mg once daily, Day 36, plasma): 1.49 h
- half-life ([1]; plasma, oral, Part 1, tazemetostat 400 mg single dose with itraconazole 200 mg once daily, Day 21, plasma, estimated over a 12‐hour dosing interval, read-out: t1/2, mean (SD) (converted)): 2.95 h
- AUC ([1]; plasma, oral, Part 1, tazemetostat 400 mg single dose with itraconazole 200 mg once daily, Day 21, plasma, read-out: AUC0‐12 h, GeoMean (CV%)): 6790 ng·h/mL
- AUC ([1]; plasma, oral, Part 1, tazemetostat 400 mg single dose with itraconazole 200 mg once daily, Day 21, plasma, read-out: AUC0‐12 h, mean (SD)): 8000 ng·h/mL
- AUC(0-t) ([1]; plasma, oral, Part 1, tazemetostat 400 mg single dose with itraconazole 200 mg once daily, Day 21, plasma, read-out: AUClast, GeoMean (CV%)): 6720 ng·h/mL
- AUC(0-t) ([1]; plasma, oral, Part 1, tazemetostat 400 mg single dose with itraconazole 200 mg once daily, Day 21, plasma, read-out: AUClast, mean (SD)): 7930 ng·h/mL
- Cmax ([1]; plasma, oral, Part 1, tazemetostat 400 mg single dose with itraconazole 200 mg once daily, Day 21, plasma, read-out: Cmax, GeoMean (CV%)): 1400 ng/mL
- Cmax ([1]; plasma, oral, Part 1, tazemetostat 400 mg single dose with itraconazole 200 mg once daily, Day 21, plasma, read-out: Cmax, mean (SD)): 1640 ng/mL
- Tmax ([1]; plasma, oral, Part 1, tazemetostat 400 mg single dose with itraconazole 200 mg once daily, Day 21, plasma): 1.53 h
- AUC ([1]; plasma, po, 400 mg, Part 1, tazemetostat 400 mg oral single dose alone, Day 1, plasma, read-out: AUC0‐12 h, GeoMean (CV%)): 2180 ng·h/mL
- AUC ([1]; plasma, po, 400 mg, Part 1, tazemetostat 400 mg oral single dose alone, Day 1, plasma, read-out: AUC0‐12 h, mean (SD)): 2460 ng·h/mL
- AUC(0-t) ([1]; plasma, po, 400 mg, Part 1, tazemetostat 400 mg oral single dose alone, Day 1, plasma, read-out: AUClast, GeoMean (CV%)): 2640 ng·h/mL
- AUC(0-t) ([1]; plasma, po, 400 mg, Part 1, tazemetostat 400 mg oral single dose alone, Day 1, plasma, read-out: AUClast, mean (SD)): 3250 ng·h/mL
- Cmax ([1]; plasma, po, 400 mg, Part 1, tazemetostat 400 mg oral single dose alone, Day 1, plasma, read-out: Cmax, GeoMean (CV%)): 704 ng/mL
- Cmax ([1]; plasma, po, 400 mg, Part 1, tazemetostat 400 mg oral single dose alone, Day 1, plasma, read-out: Cmax, mean (SD)): 803 ng/mL
- half-life ([1]; plasma, po, 400 mg, Part 1, tazemetostat 400 mg oral single dose alone, Day 1, plasma, read-out: t1/2, GeoMean (CV%) (converted)): 5.97 h
- half-life ([1]; plasma, po, 400 mg, Part 1, tazemetostat 400 mg oral single dose alone, Day 1, plasma, read-out: t1/2, mean (SD) (converted)): 6.13 h
- Tmax ([1]; plasma, po, 400 mg, Part 1, tazemetostat 400 mg oral single dose alone, Day 1, plasma): 1.44 h
- increase of tazemetostat exposure by itraconazole ([1]; overall, single dose and steady state): two to three times
- increase of mean AUC0‐12h by itraconazole [1, 6]: 3.12 fold
- increase of mean Cmax by itraconazole [1, 6]: 2.00 fold
- increase of mean steady‐state AUC0‐12h by itraconazole [1, 7]: 2.47 fold
- increase of mean steady‐state Cmax by itraconazole [1, 7]: 1.86 fold

From paper PMC12209990, “Effect of Cytochrome P450 3A Inhibition and Induction by Itraconazole and Rifampin on Tazemetostat Pharmacokinetics in Patients With Advanced Malignancies” (Clinical Pharmacology in Drug Development, 2025)
